In ChEMBL document CHEMBL1201862, “PubChem BioAssay data set” (2004):
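The compound was tested at five concentrations on cells cultured in 96-well plates, with a 48-hour exposure period. Here, GI50 denotes the concentration required for 50% inhibition of growth.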 The source made the active and inactive calls. Rule as the data show it: active = GI50 up to about 1.1 µM and inactive = higher.

How the values were obtained:
Assay in all cases: inhibition of tumour cell growth, NCI panel, 48 h
786-0 = tested on: 786-0
A498 = tested on: A498
A549 = tested on: A549
ACHN = tested on: ACHN
BT-549 = tested on: BT-549
CAKI-1 = tested on: CAKI-1
CCRF-CEM = tested on: CCRF-CEM
COLO 205 = tested on: COLO 205
DU-145 = tested on: DU-145
EKVX = tested on: EKVX
HCC 2998 = tested on: HCC 2998
HCT-116 = tested on: HCT-116
HCT-15 = tested on: HCT-15
HL-60 = tested on: HL-60
HOP-62 = tested on: HOP-62
HOP-92 = tested on: HOP-92
HT-29 = tested on: HT-29
Hs-578T = tested on: Hs-578T
IGROV-1 = tested on: IGROV-1
K562 = tested on: K562
KM12 = tested on: KM12
LOX IMVI = tested on: LOX IMVI
M14 = tested on: M14
MCF7 = tested on: MCF7
MDA-MB-231 = tested on: MDA-MB-231
MDA-MB-435 = tested on: MDA-MB-435
MDA-N = tested on: MDA-N
MOLT-4 = tested on: MOLT-4
Malme-3M = tested on: Malme-3M
NCI-H226 = tested on: NCI-H226
NCI-H23 = tested on: NCI-H23
NCI-H460 = tested on: NCI-H460
NCI-H522 = tested on: NCI-H522
NCI/ADR-RES = tested on: NCI/ADR-RES
OVCAR-3 = tested on: OVCAR-3
OVCAR-4 = tested on: OVCAR-4
OVCAR-5 = tested on: OVCAR-5
OVCAR-8 = tested on: OVCAR-8
PC-3 = tested on: PC-3
RPMI-8226 = tested on: RPMI-8226
RXF 393 = tested on: RXF 393
SF-268 = tested on: SF-268
SF-295 = tested on: SF-295
SF-539 = tested on: SF-539
SK-MEL-28 = tested on: SK-MEL-28
SK-MEL-2 = tested on: SK-MEL-2
SK-MEL-5 = tested on: SK-MEL-5
SK-OV-3 = tested on: SK-OV-3
SN12C = tested on: SN12C
SNB-19 = tested on: SNB-19
SNB-75 = tested on: SNB-75
SR = tested on: SR
SW-620 = tested on: SW-620
T47D = tested on: T47D
TK-10 = tested on: TK-10
U-251 = tested on: U-251
UACC-257 = tested on: UACC-257
UACC-62 = tested on: UACC-62
UO-31 = tested on: UO-31

## C[C@@]1(CCCCCCCCCCc2ccccc2)C[C@@]2(C)OC(=O)C[C@H]2OO1
786-0
  GI50: 1.51 µM (inactive)
A498
  GI50: 19.7 µM (inactive)
A549
  GI50: 2.76 µM (inactive)
ACHN
  GI50: 2.2 µM (inactive)
BT-549
  GI50: 0.479 µM (active)
CAKI-1
  GI50: 30.3 µM (inactive)
CCRF-CEM
  GI50: 1.55 µM (inactive)
COLO 205
  GI50: 1.7 µM (inactive)
DU-145
  GI50: 2.77 µM (inactive)
EKVX
  GI50: 2.52 µM (inactive)
HCC 2998
  GI50: 1.66 µM (inactive)
HCT-116
  GI50: 1.45 µM (inactive)
HCT-15
  GI50: 1.73 µM
HL-60
  GI50: 0.399 µM (active)
HOP-62
  GI50: 1.57 µM (inactive)
HOP-92
  GI50: 0.769 µM (active)
HT-29
  GI50: 1.46 µM (inactive)
Hs-578T
  GI50: 2.47 µM (inactive)
IGROV-1
  GI50: 1.75 µM (inactive)
K562
  GI50: 1.68 µM (inactive)
KM12
  GI50: 1.81 µM (inactive)
LOX IMVI
  GI50: 2.05 µM (inactive)
M14
  GI50: 1.51 µM (inactive)
MCF7
  GI50: 1.56 µM (inactive)
MDA-MB-231
  GI50: 1.67 µM (inactive)
MDA-MB-435
  GI50: 1.81 µM (inactive)
MDA-N
  GI50: 1.99 µM (inactive)
MOLT-4
  GI50: 1.69 µM (inactive)
Malme-3M
  GI50: 1.54 µM (inactive)
NCI-H226
  GI50: 3.1 µM (inactive)
NCI-H23
  GI50: 1.55 µM (inactive)
NCI-H460
  GI50: 1.96 µM (inactive)
NCI-H522
  GI50: 1.72 µM (inactive)
NCI/ADR-RES
  GI50: 1.68 µM (inactive)
OVCAR-3
  GI50: 1.79 µM (inactive)
OVCAR-4
  GI50: 2.17 µM (inactive)
OVCAR-5
  GI50: 1.76 µM (inactive)
OVCAR-8
  GI50: 1.43 µM (inactive)
PC-3
  GI50: 1.77 µM (inactive)
RPMI-8226
  GI50: 1.85 µM (inactive)
RXF 393
  GI50: 1.93 µM (inactive)
SF-268
  GI50: 1.8 µM (inactive)
SF-295
  GI50: 1.82 µM (inactive)
SF-539
  GI50: 1.57 µM (inactive)
SK-MEL-28
  GI50: 2.07 µM (inactive)
SK-MEL-2
  GI50: 20.9 µM (inactive)
SK-MEL-5
  GI50: 1.44 µM (inactive)
SK-OV-3
  GI50: 2.48 µM (inactive)
SN12C
  GI50: 1.81 µM (inactive)
SNB-19
  GI50: 2.26 µM (inactive)
SNB-75
  GI50: 2.81 µM (inactive)
SR
  GI50: 1.88 µM (inactive)
SW-620
  GI50: 1.68 µM (inactive)
T47D
  GI50: 2.49 µM (inactive)
TK-10
  GI50: 2.83 µM (inactive)
U-251
  GI50: 1.55 µM (inactive)
UACC-257
  GI50: 2.12 µM (inactive)
UACC-62
  GI50: 1.8 µM (inactive)
UO-31
  GI50: 1.89 µM (inactive)
